Where a name gives a salt, the structure may show the parent alone.
Tests used:
[1] = biological target: human FGFR-1 (Homo sapiens, UniProt P11362); test: FGFR-1 high ATP kinase assay (TR-FRET)
[2] = biological target: human mTOR (Homo sapiens (Human), UniProt P42345); test: mTOR kinase assay (TR-FRET, for comparative purposes); type: biochemical; conditions: read-out: mTOR % inhibition @ 1 μM, 1 μM test compound, 40 μM ATP, mean values
[3] = test system: Human umbilical vein endothelial cells (HUVEC); test: Inhibition of growth factor-mediated cell proliferation (hFGF-2); type: cell-based; conditions: Homo sapiens, HUVEC, 72 h, 72 h exposure, hFGF-2 stimulated; from averaged pIC50 values
Protocol: Human umbilical vein endothelial cells (HUVEC) were obtained from Cellsystems (FC-0003) and grown in Vasculife VEGF complete medium (Cellsystems, LL-1020) containing 2% fetal bovine serum (FBS) at 37° C. and 5% CO2. The cells were used for proliferation assays up to passage 7.
The HUVEC cells were harvested using accutase (PAA, L11-007) and seeded in columns 2 to 12 of 96-well plates (Falcon MICROTEST tissue culture plate 96-well flat bottom, BD 353075, or μCLEAR-PLATE, black, 96-well, Greiner Bio-One, No. 655090) at a cell density of 2500 cells/well in 100 μl Vasculife VEGF complete medium with column 1 remaining empty as blank. Cells were allowed to incubate at 37° C. and 5% CO2 for at least 6 h. Then, the cells were washed once with PBS and starved overnight in Vasculife basal medium (Cellsystems, LM-0002) containing heparin, ascorbate and L-glutamine (components of the Vasculife Life Factors Kit, Cellsystems, LL-1020) as well as 0.2% FBS.
After about 18 h, the starving medium was discarded, and the cells were exposed for 72 h to 9 consecutive log or half-log concentrations of test compound in the range of 10 pM to 30 μM and to 5, 10 or 20 ng/ml hFGF-2 (recombinant human FGF basic, R&D Systems, 233-FB) in 100 μl starving medium. 10 mM stock solutions of test compounds in DMSO were diluted to 200× final concentration in DMSO resulting in a final DMSO concentration of 0.5% in all wells. Controls consisted of cells grown in starving medium only and of cells grown in hFGF-2 containing starving medium with 0.5% DMSO. To determine cell proliferation, 5 μl Alamar Blue solution (Biosource, DAL1100) was added to each well (1:20 dilution), and the cells were allowed to incubate for further 4 h at 37° C. and 5% CO2 before measuring fluorescence (ex. 535 nm, em. 595 nm) with a Spectrafluor Plus Tecan plate reader (XFLUOR4 version 4.20). In some experiments, an ATP Determination Kit (BIAFFIN GmbH, LBR-T100) was used according to the manufacturer's instructions. In each experiment, samples were assayed in triplicate, and the standard deviations were determined GraphPad Prism 5 software was used to analyze the data and to obtain IC50 values. All test compounds were assayed 2 to 10 times in independent experiments and similar results were obtained.

[4] = biological target: human FGFR-3 (Homo sapiens (Human), UniProt P22607); test: FGFR-3 kinase assay (TR-FRET); type: biochemical; conditions: 10 μM ATP, 15 min pre-incubation with enzyme
human FGFR-3, sequence (P22607 397-806): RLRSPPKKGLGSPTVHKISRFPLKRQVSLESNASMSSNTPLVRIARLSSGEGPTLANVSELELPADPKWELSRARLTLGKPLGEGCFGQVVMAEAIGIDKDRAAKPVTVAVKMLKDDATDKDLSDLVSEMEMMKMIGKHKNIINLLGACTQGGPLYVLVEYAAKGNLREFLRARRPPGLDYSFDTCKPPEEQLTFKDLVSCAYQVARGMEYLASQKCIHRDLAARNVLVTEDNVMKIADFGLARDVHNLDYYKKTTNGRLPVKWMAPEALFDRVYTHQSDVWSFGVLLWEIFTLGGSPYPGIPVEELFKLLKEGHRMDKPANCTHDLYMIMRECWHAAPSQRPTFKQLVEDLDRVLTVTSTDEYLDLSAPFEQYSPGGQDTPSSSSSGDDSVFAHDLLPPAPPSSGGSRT

human FGFR-1, sequence (P11362 22-822 limits assumed): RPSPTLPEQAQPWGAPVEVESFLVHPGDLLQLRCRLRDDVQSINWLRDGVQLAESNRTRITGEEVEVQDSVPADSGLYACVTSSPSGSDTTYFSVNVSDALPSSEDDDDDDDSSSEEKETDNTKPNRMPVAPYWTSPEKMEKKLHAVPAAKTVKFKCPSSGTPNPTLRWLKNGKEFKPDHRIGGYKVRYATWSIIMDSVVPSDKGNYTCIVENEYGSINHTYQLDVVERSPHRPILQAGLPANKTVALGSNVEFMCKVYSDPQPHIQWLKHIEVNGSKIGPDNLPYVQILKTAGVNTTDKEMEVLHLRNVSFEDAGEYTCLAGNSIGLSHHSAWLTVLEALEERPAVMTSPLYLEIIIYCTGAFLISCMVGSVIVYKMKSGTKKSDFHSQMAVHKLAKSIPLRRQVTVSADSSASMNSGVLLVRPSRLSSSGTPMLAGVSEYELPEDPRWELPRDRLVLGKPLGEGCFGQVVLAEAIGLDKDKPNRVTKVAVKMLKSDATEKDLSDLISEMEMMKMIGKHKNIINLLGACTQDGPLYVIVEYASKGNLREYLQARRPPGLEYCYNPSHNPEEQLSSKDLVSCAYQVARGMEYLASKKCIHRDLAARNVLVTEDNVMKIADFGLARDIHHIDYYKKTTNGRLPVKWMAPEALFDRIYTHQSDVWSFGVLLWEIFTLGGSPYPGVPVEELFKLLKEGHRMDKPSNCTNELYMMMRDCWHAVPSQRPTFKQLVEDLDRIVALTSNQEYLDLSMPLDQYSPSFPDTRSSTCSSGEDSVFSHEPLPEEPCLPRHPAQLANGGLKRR
human mTOR, sequence (P42345 1360-2549): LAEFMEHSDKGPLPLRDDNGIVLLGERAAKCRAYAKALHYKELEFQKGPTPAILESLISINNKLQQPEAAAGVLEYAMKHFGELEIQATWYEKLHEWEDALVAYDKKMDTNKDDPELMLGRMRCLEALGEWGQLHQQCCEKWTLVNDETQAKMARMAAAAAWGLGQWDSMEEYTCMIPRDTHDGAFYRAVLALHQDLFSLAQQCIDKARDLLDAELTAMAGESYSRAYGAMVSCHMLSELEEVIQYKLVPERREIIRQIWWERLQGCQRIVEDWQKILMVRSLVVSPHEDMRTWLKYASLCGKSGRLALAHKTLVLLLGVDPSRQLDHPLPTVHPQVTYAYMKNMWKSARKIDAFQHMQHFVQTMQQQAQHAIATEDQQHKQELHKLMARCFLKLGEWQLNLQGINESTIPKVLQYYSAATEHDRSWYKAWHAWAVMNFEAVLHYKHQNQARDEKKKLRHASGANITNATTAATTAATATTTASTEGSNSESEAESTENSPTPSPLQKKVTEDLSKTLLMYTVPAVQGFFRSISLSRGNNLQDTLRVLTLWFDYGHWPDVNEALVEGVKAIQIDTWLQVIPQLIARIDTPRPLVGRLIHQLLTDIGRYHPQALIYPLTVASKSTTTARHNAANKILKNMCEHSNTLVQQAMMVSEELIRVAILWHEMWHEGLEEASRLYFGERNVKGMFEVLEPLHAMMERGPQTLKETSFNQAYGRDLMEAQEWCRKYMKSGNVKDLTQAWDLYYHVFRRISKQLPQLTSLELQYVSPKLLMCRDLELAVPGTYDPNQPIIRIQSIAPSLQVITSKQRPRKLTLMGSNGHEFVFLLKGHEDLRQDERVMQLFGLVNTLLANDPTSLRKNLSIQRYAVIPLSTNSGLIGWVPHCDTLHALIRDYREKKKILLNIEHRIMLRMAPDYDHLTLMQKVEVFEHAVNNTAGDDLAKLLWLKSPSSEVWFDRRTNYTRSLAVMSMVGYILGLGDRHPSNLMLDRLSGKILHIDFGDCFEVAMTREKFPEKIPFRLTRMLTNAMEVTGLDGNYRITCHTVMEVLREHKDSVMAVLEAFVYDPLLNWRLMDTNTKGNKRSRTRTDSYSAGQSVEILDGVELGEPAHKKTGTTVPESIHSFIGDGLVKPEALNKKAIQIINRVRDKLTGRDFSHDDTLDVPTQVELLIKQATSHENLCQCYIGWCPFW

`COc1cc(C)cc2cc(-c3cc(CN4CCN(C(=O)CO)CC4)n4ncnc(N)c34)sc12` [Example 96, 1-(4-{[4-Amino-5-(7-methoxy-5-methyl-1-benzothiophen-2-yl)pyrrolo[2,1-f][1,2,4]triazin-7-yl]-methyl}piperazin-1-yl)-2-hydroxyethanone] was tested, and the IC50 [1] was 12.6 nM, the inhibition at 1 µM [2] was 37.9% and the IC50 [3] was 72 nM. For the same compound, the IC50 [4] was 11.9 nM.
`COc1cc(C)cc2cc(-c3cc(CN4CC[C@H](N(C)C)C4)n4ncnc(N)c34)sc12` [Example 15] was tested, and the IC50 [1] was 11.1 nM, the inhibition at 1 µM [2] was 25.2% and the IC50 [3] was 180 nM. For the same compound, the IC50 [4] was 23 nM.
`COc1cc(C)cc2cc(-c3cc(CN[C@H]4CCNC4=O)n4ncnc(N)c34)sc12` [Example 14] gave an IC50 [1] of 43.6 nM, an inhibition at 1 µM [2] of 30.6% and an IC50 [3] of 32 nM. The IC50 [4] was 33.4 nM.
In the case of `COc1cc(C)cc2cc(-c3cc(CN4CC[C@H](N)C4)n4ncnc(N)c34)sc12` [Example 9, 7-{[(3S)-3-Aminopyrrolidin-1-yl]methyl}-5-(7-methoxy-5-methyl-1-benzothiophen-2-yl)pyrrolo[2,1-f][1,2,4]triazin-4-amine], the IC50 [1] is reported as 4.7 nM, the inhibition at 1 µM [2] is reported as 24.2% and the IC50 [3] is reported as 145 nM. It also gave an IC50 [4] of 7.4 nM.
In the case of `COc1cc(C)cc2cc(-c3cc(CN4CCNC(=O)CC4)n4ncnc(N)c34)sc12` [Example 20], the IC50 [1] is reported as 54.7 nM, the inhibition at 1 µM [2] is reported as 35.6% and the IC50 [3] is reported as 110 nM. For the same compound, the IC50 [4] was 24.8 nM.
Compound `COc1cc(C)cc2cc(-c3cc(C(=O)NC4CCNC4=O)n4ncnc(N)c34)sc12` (racemic) [Example 98, rac-4-Amino-5-(7-methoxy-5-methyl-1-benzothiophen-2-yl)-N-(2-oxopyrrolidin-3-yl)pyrrolo-[2,1-f][1,2,4]triazine-7-carboxamide hydrochloride] has an IC50 [1] of 9 nM, an inhibition at 1 µM [2] of 24.6% and an IC50 [3] of 48 nM. The IC50 [4] was 13.1 nM.
`COc1cc(C)cc2cc(-c3cc(CNCC(N)=O)n4ncnc(N)c34)sc12` [Example 18] was tested, and the IC50 [1] was 26.4 nM, the inhibition at 1 µM [2] was 39.1% and the IC50 [3] was 155 nM. It also gave an IC50 [4] of 7.8 nM.
`COc1cc(C)cc2cc(-c3cc(CN4CCCC(N(C)C)C4)n4ncnc(N)c34)sc12` (stereo not shown) [Example 86] gave an IC50 [1] of 4.6 nM, an inhibition at 1 µM [2] of 33% and an IC50 [3] of 37 nM. For the same compound, the IC50 [4] was 9.6 nM.
Work on `COc1cc(C)cc2cc(-c3cc(CN[C@@H]4CCNC4=O)n4ncnc(N)c34)sc12` [Example 6, (3R)-3-({[4-Amino-5-(7-methoxy-5-methyl-1-benzothiophen-2-yl)pyrrolo[2,1-f][1,2,4]triazin-7-yl]methyl}amino)pyrrolidin-2-one dihydrochloride] yielded an IC50 [1] of 20.1 nM, an inhibition at 1 µM [2] of 33.5% and an IC50 [3] of 22 nM. It also gave an IC50 [4] of 21.7 nM.
`COc1cc(C)cc2cc(-c3cc(CN4CCNC(C(=O)N(C)C)C4)n4ncnc(N)c34)sc12` (stereo not shown) [Example 17] was tested, and the IC50 [1] was 27.3 nM, the inhibition at 1 µM [2] was 34.3% and the IC50 [3] was 150 nM. It also gave an IC50 [4] of 36.9 nM.
With `COc1cc(C)cc2cc(-c3cc(CN4CCC[C@H](N)C4)n4ncnc(N)c34)sc12` [Example 56] the IC50 [1] was 17.5 nM, the inhibition at 1 µM [2] was 32.1% and the IC50 [3] was 169 nM. The IC50 [4] was 22.6 nM.
`COc1cc(C)cc2cc(-c3cc(CN4CCC(NCC(C)O)C4)n4ncnc(N)c34)sc12` (stereo not shown) [Example 22] was tested, and the IC50 [1] was 9.3 nM, the inhibition at 1 µM [2] was 14% and the IC50 [3] was 105 nM. The IC50 [4] was 41.8 nM.
`COc1cc(C)cc2cc(-c3cc(C(=O)N4CCNCC4)n4ncnc(N)c34)sc12` [Example 99, [4-Amino-5-(7-methoxy-5-methyl-1-benzothiophen-2-yl)pyrrolo[2,1-f][1,2,4]triazin-7-yl]-(piperazin-1-yl)methanone dihydrochloride] gave an IC50 [1] of 90.4 nM, an inhibition at 1 µM [2] of 9.9% and an IC50 [3] of 270 nM. It also gave an IC50 [4] of 66.6 nM.
In the case of `COc1cc(C)cc2cc(-c3cc(CN4CCNC(=O)C4)n4ncnc(N)c34)sc12` [Example 8, 4-{[4-Amino-5-(7-methoxy-5-methyl-1-benzothiophen-2-yl)pyrrolo[2,1-f][1,2,4]triazin-7-yl]-methyl}piperazin-2-one dihydrochloride], the IC50 [1] is reported as 29 nM, the inhibition at 1 µM [2] is reported as 45.9% and the IC50 [3] is reported as 370 nM.

Reference: patent US9475815B2, “Substituted benzothienyl-pyrrolotriazines and uses thereof” (Bayer Intellectual Property GmbH, priority 2012, dated 2016)
